Source: US11160843B2, “Oxytocin and opioid antagonists for treatment of social dysfunction disorder” (YALE UNIVERSITY, priority 2018, dated 2021)

Key:
social partners = settings: background statement; cited from earlier work
[1] = system: rhesus macaques (Macaca mulatta); test: Live gaze interaction task (social attention to a conspecific); assay type: in vivo; settings: for attention to the conspecific (looking at the eyes) following mutual eye contact, compared with SAL: 0.5-3 s after mutual eye contact, permutation test, OTNAL P<0.01, OT, NAL both P>0.05
Description: Nine adult rhesus macaques (Macaca mulatta) were selected for study. The animals (six males and three females) were all housed together in a colony in either pairs or triads. Each animal was kept on a 12-h light/dark cycle and had access to food 24 h each day with controlled access to water during testing. Before testing began, each monkey received a surgically implanted head post (Crist Instruments, Gray Matter Research) for restraining its head while tracking eye positions. At the time of surgery, anesthesia was induced with ketamine hydrochloride (10 mg/kg i.m.) and maintained with isoflurane (1.0-3.0%, to effect). Aseptic procedures were used, and heart rate, respiration rate, blood pressure, expired CO2, and body temperature were monitored throughout the procedure. Monkeys were allowed an additional 30-40 d of recovery after the implant surgery.
All of the tested subjects received pharmacological manipulations through a pediatric nebulizer (PARI Baby Nebulizer; PARI Respiratory Equipment) with a cone-shaped facemask. The facemask, designed for canine anesthesia, was fitted entirely over the muzzle area, and the subject breathed freely through the nose for the duration of the dose administration. Before experimental sessions, monkeys were first incrementally habituated to the facemask and then to the nebulizer until they were completely relaxed during the procedure, which typically took about 3-5 d. […]
Gaze calibration procedures for studying dyadic gaze interactions reported by Dal Monte, et al., 2016, J. Neurophysiol. […] For analysis purposes, the location was determined where the animal was looking on a theoretical screen located further from the actual screen on which the animal was calibrated. With trigonometric corrections, the ROIs were identified and matched based on individual measurements of each monkey's face to the dimension of fixations as measured from the calibration screen. […]
Two animals sat in front of each other with no task constraints while the eye positions of both animals were recorded simultaneously and continuously (FIG. 1A). […]

[2] = system: rhesus macaques (Macaca mulatta); test: NAL dose-response curve, free-viewing task (fixation frequency to face images); assay type: in vivo; settings: intranasal NAL 0.5, 1, 2 mg via nebulizer, P<0.001 for 1 mg over 2 mg and over 0.5 mg
Text: All of the tested subjects received pharmacological manipulations through a pediatric nebulizer (PARI Baby Nebulizer; PARI Respiratory Equipment) with a cone-shaped facemask. The facemask, designed for canine anesthesia, was fitted entirely over the muzzle area, and the subject breathed freely through the nose for the duration of the dose administration. Before experimental sessions, monkeys were first incrementally habituated to the facemask and then to the nebulizer until they were completely relaxed during the procedure, which typically took about 3-5 d. This habituation procedure was performed with saline (SAL). During both the habituation phase and the testing phase, the animals' heads were restrained to minimize movement and enhance administration reliability. Each of the different pharmacology manipulations tested was diluted to a volume of 2 mL using sterile SAL and was administered over the course of 8-10 min. In addition, experimental sessions were conducted at the same time of day to control for diurnal fluctuations. […]
On the day of the experiment, monkeys were transported in a primate chair from the colony room to the experimental room. […] During the 15-s period, monkeys were free to explore, or not explore, each face presented while an infrared eye-tracking camera continuously recorded their eye positions (Eyelink; SR Research). […]

CN1CC[C@]23c4c5ccc(O)c4O[C@H]2[C@@H](O)C=C[C@H]3[C@H]1C5 [morphine]
physical contact between social partners (social partners): decrease physical contact between social partners

CC[C@H](C)[C@@H]1NC(=O)[C@H](Cc2ccc(O)cc2)NC(=O)[C@@H](N)CSSC[C@@H](C(=O)N2CCC[C@H]2C(=O)N[C@@H](CC(C)C)C(=O)NCC(N)=O)NC(=O)[C@H](CC(N)=O)NC(=O)[C@H](CCC(N)=O)NC1=O [OT, 1-({(4R,7S,10S,13S,16S,19R)-19-amino-7-(2-amino-2-oxoethyl)-10-(3-amino-3-oxopropyl)-16-(4-hydroxybenzyl)-13-[(1S)-1-methylpropyl]-6,9,12,15,18-pentaoxo-1,2-dithia-5,8,11,14,17-pentaazacycloicosan-4-yl}carbonyl)-L-prolyl-L-leucylglycinamide]
attention to the conspecific (looking at the eyes) following mutual eye contact, compared with SAL [1]: neither OT nor NAL administered alone had a significant effect | frequency of fixations to the eyes of a conspecific, normalized by SAL ([1]; OT 24 IU, NAL 1 mg, intranasal, P=0.004 OTNAL over SAL, P=0.069 over NAL, P=0.022 over OT, OT over SAL P=0.059 (marginal)): overall increased fixations to the eyes compared with SAL

C=CCN1CC[C@]23c4c5ccc(O)c4O[C@H]2C(=O)CC[C@@]3(O)[C@H]1C5 [NAL, naloxone]
solicitation for social contact, such as grooming and proximity (social partners): increases solicitation for social contact | frequency of fixations to the eyes, normalized by SAL [2]: maximal effect again clearly occurred following the 1-mg dose | frequency of fixations to faces, normalized by SAL ([2]; inverted U-shaped curve): maximal effects clearly occurred following the 1-mg dose | attention to the conspecific (looking at the eyes) following mutual eye contact, compared with SAL [1]: neither OT nor NAL administered alone had a significant effect
